# Entries after “also recorded” stand apart in the source; their conditions may differ. Structures can show the parent of a compound that is named as a salt.
# What was measured:
# db/db mice [1] = experiment: Chronic effect (21 days) on plasma glucose 3 hrs post dosing in db/db mice; assay type: in vivo
# Experimental: (§1) Db/db mice were acclimatized to dosing and exposed to tail cut and r.o.p bleeding. Animals were grouped based on plasma glucose, triglyceride and cholesterol values. Acute effect of test compound on plasma glucose levels determined 3 hrs post dosing followed by administration of test compound for 21 days. After 14 days treatment, 4 hrs fasting plasma glucose levels were measured. After 21 days treatment, 4 hrs fasting plasma glucose levels were measured followed by test compound administration and measurement of plasma glucose levels 3 hrs post dosing.
# (§2) Kits: Plasma glucose, cholesterol and triglyceride were measured using Dade Behring auto analyzer. Plasma insulin values measured using Rat/mouse insulin ELISA kit (Millipore, lot no 16006280). Tail cut method plasma glucose values measured using Contour TS glucometer strips (Lot WK8MD3E32A).
# (§3) Compounds and Vehicle: All test-compounds were formulated in tween CMC (10% of 2.5% tween 80+90% of 0.25% CMC) and prepared daily about 1 hr before administration. Animals were dosed for 21 days through oral gavage at dose volume of 10 ml/kg body weight.
# (§4) Animals were dosed daily at around 10 AM to 11 AM with corresponding test compounds/vehicle at a volume of 10 ml/kg of body weight. Body weight, water intake and food intake was measured daily. After 14 days treatment plasma profile (PG, TG & TC) was measured in 4 hrs fasted animals. On that day animals were dosed post bleeding after keeping feed at 4 PM. After 21 days treatment plasma profile (PG, TG & TC) was measured in 4 hrs fasted animals. After bleeding, animals were administered with test compounds/vehicle and plasma glucose was measured 3 hrs post dosing with Glucometer. Immediately animals were provided with feed.
# (§5) The percent reduction in plasma profile parameters were calculated using the formula 1−(tt/tc)/bt/bc)×100; where tt: test day treated group mean value of the parameter; tc: test day control group mean value of the parameter; bc: Basal Control group mean value; bt: Basal treated group mean value.
# (§6) Statistics were applied using One-Way ANOVA followed by Dunnett's test using sigma stat software.
# db/db mice [2] = experiment: Chronic effect on plasma profile (PG, TC, TG), 4 hrs fasted, before dosing, in db/db mice; assay type: in vivo
# Experimental: as §1, §2, §3, §4
# (§7) Blood samples from r.o.p bleeding were collected in micro centrifuge tubes containing 5 ul of EDTA Na ([…]). Plasma separated by centrifuging blood samples at 6000 rpm at 40 C for 5 minutes. Plasma glucose, total cholesterol and triglyceride were measured using Dade Bhering auto analyser. Plasma insulin was measured (in duplicate samples), using Millipore mouse/rat insulin ELISA kit.
# as §5, §6
# db/db mice [3] = experiment: Acute effect of test compounds on plasma glucose levels in db/db mice; assay type: in vivo
# Experimental: as §1, §2, §3
# On the day of initiating study animals were fasted for 4 hrs and plasma glucose was measured with Glucometer by tail cut method. Animals were dosed with test compound/vehicle according to their body weight and 3 hrs post dosing plasma glucose levels were measured with Glucometer Immediately animals were provided with measured amount of feed.
# Acute effect percent reduction in PG was calculated for each animal using the formula
# {(0 hr PG−test hr PG)/0 hr PG}×100
# as §6
# db/db mice [4] = experiment: Chronic effect on plasma insulin levels in db/db mice; assay type: in vivo; set-up: % Reduction in plasma insulin / % Reduction@ in plasma insulin: concentration or dose not given beside the values
# Experimental: as §2, §3, §4, §7, §5, §6
# [5] = Chronic effect on body weight in db/db mice; assay type: in vivo; details: Mean ± SEM
# Experimental: as §3, §4, §6
# [6] = cited from earlier work
# [7] = test system: AMP-activated protein kinase (AMPK); details: HepG2 cells; cited from earlier work
# [8] = 14 days 300 mg/kg once daily per oral, 4 hr fasting, pre dosing
# [9] = 14 days 300 mg/kg once daily, adjusted for control and basal
# [10] = 21 days 300 mg/kg once daily per oral, 4 hr fasting, predosing
# [11] = 21 days 300 mg/kg once daily, post 4 hrs fasting, without dosing on the day
# [12] = basal, 4 hrs fasted, before treatment, Mean ± SEM
structure (smiles),measurement,setting,value
"CN(C)C(=N)N=C(N)N [ILB-MCO-0906Q, Metformin hydrochloride]",plasma glucose levels 3 hrs post dosing after 21 days treatment followed by administration on day 21 (in words),"db/db mice [1]; 300 mg/kg, hydrochloride",significant lowering; also recorded: significant reduction
same,"% Red PG, 21th day 3 hr post dosing","db/db mice [1]; 21 days 300 mg/kg once daily, then dose, 3 hrs post dosing",44%
same,21th day 3 hr post dosing PG,"db/db mice [1]; 21 days 300 mg/kg once daily, then dose, 3 hrs post dosing, Mean ± SEM",200 ± 31 mg/dL
same,14th day PG,db/db mice [2]; [8],443.33 ± 40.27 mg/dL
same,14th day TC,db/db mice [2]; [8],144.51 ± 4.61 mg/dL
same,14th day TG,db/db mice [2]; [8],114.11 ± 4.76 mg/dL
same,"% Red PG, 14th day",db/db mice [2]; [9],3%
same,"% Red TC, 14th day",db/db mice [2]; [9],6%
same,"% Red TG, 14th day",db/db mice [2]; [9],17%
same,21st day PG,db/db mice [2]; [10],400.80 ± 42.77 mg/dL
same,21st day TC,db/db mice [2]; [10],157.86 ± 8.76 mg/dL
same,21st day TG,db/db mice [2]; [10],127.00 ± 5.65 mg/dL
same,"% Red PG, 21st day","db/db mice [2]; 21 days 300 mg/kg once daily, adjusted for control and basal",7%
same,"% Red TC (plasma cholesterol), 21st day",db/db mice [2]; [11],11%
same,"% Red TG (plasma triglyceride), 21st day",db/db mice [2]; [11],28%
same,Basal PG,db/db mice [2]; [12],402.43 ± 26.13 mg/dL
same,Basal TC,db/db mice [2]; [12],155.90 ± 5.08 mg/dL
same,Basal TG,db/db mice [2]; [12],136.10 ± 5.39 mg/dL
same,4 hrs fasting plasma glucose levels after 21 days treatment (in words),"db/db mice [2]; chronic treatment 21 days, 300 mg/kg",did not show significant reduction
same,% Reduction in plasma glucose (acute),"db/db mice [3]; 0 hr vs 3 hr post single dose 300 mg/kg per oral, Mean ± SEM",52 ± 4 %
same,3 Hr plasma glucose,"db/db mice [3]; 3 hrs post single dose 300 mg/kg per oral, Mean ± SEM",181 ± 25 mg/dL
same,0 Hr plasma glucose,"db/db mice [3]; 4 hrs fasted, before dosing, 300 mg/kg per oral group, Mean ± SEM",373 ± 43 mg/dL
same,plasma glucose levels 3 hrs post dosing with single dose (in words),"db/db mice [3]; acute administration, 300 mg/kg, vs control group, hydrochloride, 300 mg/kg",Significant lowering; also recorded: significant reduction
same,% Reduction@ in plasma insulin,"db/db mice [4]; 21th day, calculated after adjusting for control group change",28%
same,21th day insulin,"db/db mice [4]; 21 days 300 mg/kg once daily, 4 hr fasting, predosing",3.82 ± 0.72 ng/mL
same,% Reduction in plasma insulin,"db/db mice [4]; basal vs 21th day, Mean ± SEM",15.32 ± 7.16%
same,Basal insulin,"db/db mice [4]; basal, before treatment, Mean ± SEM",4.42 ± 0.63 ng/mL
same,Final day Body weight,[5]; after 21 days 300 mg/kg once daily,45.1 ± 0.6 g
same,% Increase in body weight,[5]; basal to final day,14.5 ± 0.9%
same,Basal Body weight,[5]; basal,38.5 ± 0.5 g
N[C@@H](CC(=O)N1CCn2c(nnc2C(F)(F)F)C1)Cc1cc(F)c(F)cc1F [Sitagliptin],Bioavailability,[6],87%
same,Half Life,[6],8 to 14 h
Oc1ccc(C=Cc2cc(O)cc(O)c2)cc1 [resveratrol],AMPK phosphorylation,[7],increased
